Test system: glia
Assay: dual labeling of cortical slices with mag-Indo-1AM and sulforhodamine (neurons vs glia)
Format: cell-based, mice
Conditions: 145/2555; n=4 slices; neocortical slices
Procedure: FIGS. 9(a)-9(d) are exemplary images mag-Indo-1-AM loads mostly neurons in which slices are simultaneously loaded with mag-Indo1-AM and Sulforhodamine 101 (e.g., SR101, 20 μM) and imaged at their respective exemplary wavelengths;
(See A. Nimmerjahn, F. Kirchhoff, J. N. Kerr et al., Nat Methods 1 (1), 31 (2004)). For example, 5.7±1.56% (145/2555; n=4 slices) of mag-Indo-1AM loaded cells can also be loaded with sulforhodamine, and only 8.1 t 2.59% (145/1786, n=4 slices) of sulforhodamine-loaded cells can also be loaded with mag-Indo-1AM.
Coronal neocortical slices can be prepared from, e.g., P12-15 C57/BL6 mice or somatostatin-GFP mice (see A. A. Oliva, Jr., M. Jiang, T. Lam et al., J Neurosci 20 (9), 3354 (2000)) (e.g., Jackson Laboratory, Bar Harbor, Me.) with a vibratome (e.g., VT1000S; Leica, Nussloch, Germany). 300 μm thick slices can be cut in ice-cold oxygenated modified ACSF that can include 1 mM CaCl2 and 3 mM MgSO4, in which NaCl can be replaced by an equimolar concentration of sucrose (in mM): 27 NaHCO3, 1.5 NaH2PO4, 222 Sucrose, 2.6 KCl. Slices can then be placed in oxygenated standard ACSF at 37° C. for 30 min. For AM-loading, slices can be deposited onto the bottom of a small Petri dish (35×10 mm) filled with 2 ml of ACSF, ventilated with 95% O2/5% CO2 and placed in a slide warmer at 37° C. (Fisher Scientific, Waltham Mass.). […]

mag-Indo-1AM
mag-Indo-1AM loaded cells also loaded with sulforhodamine: 5.7±1.56%
